Experimental data reported in PMC9896555, “Cyclic Acetals as Novel Long-Lasting Mosquito Repellents” (Journal of Agricultural and Food Chemistry, 2023).
Like-named read-outs stand apart in the source and are kept apart here.

Key:
Aedes albopictus [1] = test: Protection time at 0.17 mg/cm2, human-bait technique; type: in vivo; details: for pest or weed control at 0.17 mg/cm2, 0.17 mg/cm2: Aedes albopictus, topical, read-out: Protection time PE%; for Average PT >95% (% coefficient of variation) / Estimated 100% PT (complete protection time, mean±SE): at the dose of 0.17mg/cm2; for Estimated 100% PT (complete protection time, mean±SE): Kaplan–Meier estimate; for Protection time (95% protection): dose of 0.17 mg/cm^2, tests ended after 8 h
Procedure: To evaluate the protection time of derivatives, the PE % was measured with 100 μL of a 5% ethanol solution, corresponding to 0.17 mg/cm^2 of exposed skin, under the same laboratory conditions. Mosquito-exposed skin was treated with 100 μL of ethanol, as the negative hand control. For each volunteer (up to 8), the test was performed every hour, up to 8 h from the application. The protection time of DEET and Icaridin was measured under the same conditions. Since these trials were run in parallel with those aimed to profile the cytotoxicity of the compounds (paragraph 2.6), we interrupted the experiments for those compounds showing to have higher cytotoxicity than Icaridin and DEET as soon as the results were available. For this reason, the number of volunteers differs among the compounds.
The average time until protection which was higher than 95% protection time was considered for each compound. Moreover, for the compounds tested on at least three volunteers, the complete (100%) protection time was also estimated (SPSS 28.01.0) using the Kaplan–Meier survivor function procedure.[22]

Aedes albopictus [2] = test: Effective dose / protection efficacy, human-bait technique; type: in vivo; details: for pest or weed control at 0.081 µg/cm2, 0.081 µg/cm2 / pest or weed control at 0.17 µg/cm2, 0.17 µg/cm2 / pest or weed control at 0.33 µg/cm2, 0.33 µg/cm2 / pest or weed control at 0.5 µg/cm2, 0.5 µg/cm2 / pest or weed control at 0.83 µg/cm2, 0.83 µg/cm2 / pest or weed control at 1.7 µg/cm2, 1.7 µg/cm2 / pest or weed control at 8.3 µg/cm2, 8.3 µg/cm2 / pest or weed control at 16.7 µg/cm2, 16.7 µg/cm2 / pest or weed control at 83.3 µg/cm2, 83.3 µg/cm2: Aedes albopictus, topical, read-out: Protection efficacy PE%; for 100% PE: Table S1; for Protection efficacy (dose to obtain complete protection (100%) from bite attempts): applied on skin of volunteers, 3 min exposure
Procedure: The repellence of DEET, Icaridin (both supplied by Istituto Biochimico VEBI s.r.l.), acetals, and the synthesized hydroxyacetals was evaluated againstAedes albopictususing the human-bait technique (to simulate the condition of human skin on which repellents will be applied).[22]A. albopictuswas reared and tested at 26 ± 2 °C, ≥60 ± 10% relative humidity (RH), and at 14:10 h light/dark photoperiod, within Plexiglas cylindrical laboratory cages (35 cm diameter, 60 cm length) with one end closed by a net. During the tests, cages contained ≈150 nulliparous, 4–7 day-old, nonblood-fed females. For each compound to be tested, up to six volunteers participated in the trial.
The study was approved by the Regional Ethics Committee for Clinical Trials of Tuscany Region with the registered number 20383. Volunteers agreed to take part in the experiments following informed consent; only volunteers non-allergic to mosquito bites participated in the trials. On the day of the bioassay, they had no contact with lotions, perfumes, oils, or perfumed soaps. They wore latex surgical gloves, in which a dorsal square area of 30 cm^2 was cut open. Mosquito-exposed skin was treated with 50 μL of ethanol, as the negative hand control. The other hand was treated with 50 μL of the tested compounds in ethanol solution (dosages corresponding to 0.081, 0.17, 0.33, 0.5, 0.83, 1.7, 8.3, 16.7, and 83.3 μg/cm^2). Both hands were presented in the same test cage. The number of probing mosquitoes in a 3 min exposure period was recorded. During each test, the control and the treated hand were presented interchanged to verify the mosquitoes’ readiness to bite. Trials were considered valid only if at least 30 mosquitoes performed probing behavior on the control hand before each repellent dosage was tested. The protection efficacy (PE %) obtained from all replicates was calculated, according to the WHO guidelines[31] using this formula [drawing 1]
To evaluate the protection efficacy, volunteers applied increasing doses of the compounds to the skin on the back of their hands (30 cm^2, while the rest was covered with a rubber glove) and counted the number of mosquitoes attempting to bite; the solvent only was used on the control hand. The protection (percentage of repelled mosquitoes) was calculated as reported in the Material and Methods section.

Compound	pest or weed control at 0.17 mg/cm2, 0.17 mg/cm2 (Aedes albopictus [1]; 0.17mg/cm2, 1 h) [%]	pest or weed control at 0.17 mg/cm2, 0.17 mg/cm2 (Aedes albopictus [1]; 0.17mg/cm2, 2 h) [%]	pest or weed control at 0.17 mg/cm2, 0.17 mg/cm2 (Aedes albopictus [1]; 0.17mg/cm2, 3 h) [%]	pest or weed control at 0.17 mg/cm2, 0.17 mg/cm2 (Aedes albopictus [1]; 0.17mg/cm2, 4 h) [%]	pest or weed control at 0.17 mg/cm2, 0.17 mg/cm2 (Aedes albopictus [1]; 0.17mg/cm2, 5 h) [%]	pest or weed control at 0.17 mg/cm2, 0.17 mg/cm2 (Aedes albopictus [1]; 0.17mg/cm2, 6 h) [%]	Average PT >95% (% coefficient of variation) (Aedes albopictus [1])	Estimated 100% PT (complete protection time, mean±SE) (Aedes albopictus [1]) [min]	Protection time (95% protection) (Aedes albopictus [1]) [h]	pest or weed control at 0.081 µg/cm2, 0.081 µg/cm2 (Aedes albopictus [2]) [%]	pest or weed control at 0.17 µg/cm2, 0.17 µg/cm2 (Aedes albopictus [2]) [%]	pest or weed control at 0.33 µg/cm2, 0.33 µg/cm2 (Aedes albopictus [2]) [%]	pest or weed control at 0.5 µg/cm2, 0.5 µg/cm2 (Aedes albopictus [2]) [%]	pest or weed control at 0.83 µg/cm2, 0.83 µg/cm2 (Aedes albopictus [2]) [%]	pest or weed control at 1.7 µg/cm2, 1.7 µg/cm2 (Aedes albopictus [2]) [%]	pest or weed control at 8.3 µg/cm2, 8.3 µg/cm2 (Aedes albopictus [2]) [%]	pest or weed control at 16.7 µg/cm2, 16.7 µg/cm2 (Aedes albopictus [2]) [%]	pest or weed control at 83.3 µg/cm2, 83.3 µg/cm2 (Aedes albopictus [2]) [%]	100% PE (Aedes albopictus [2]) [µg/cm2]	Protection efficacy (dose to obtain complete protection (100%) from bite attempts) (Aedes albopictus [2]) [μg/cm^2]	also measured
CCCCCCCC1(C)OCC(CO)O1 (centres unmarked) [15a]	100	99.6	100	100	97.7	98.5	480 (6.0) min	380 ± 61	8	7.74	35.8	45.9	54.7	62.2	89.4	98.8	100	100	16.7	16.7	pest or weed control at 0.17 mg/cm2, 0.17 mg/cm2 (Aedes albopictus [1]; 0.17mg/cm2, 7 h): 97.5%; pest or weed control at 0.17 mg/cm2, 0.17 mg/cm2 (Aedes albopictus [1]; 0.17mg/cm2, 8 h): 96.7%
CCCCC1(CCCC)OCC(C)(CO)CO1 [16b]	98.6	97.5	99.5	96.3	95.1	93.7	420 (8.0) min	180 ± 64	7	0	40.6	31.2	68.4	94.7	100	100	100	100	1.7	1.7	pest or weed control at 0.17 mg/cm2, 0.17 mg/cm2 (Aedes albopictus [1]; 0.17mg/cm2, 7 h): 96.2%; pest or weed control at 0.17 mg/cm2, 0.17 mg/cm2 (Aedes albopictus [1]; 0.17mg/cm2, 8 h): 94.6%
CCN(CC)C(=O)c1cccc(C)c1 [DEET, N,N-diethyl-3-methylbenzamide, reference compound]	98	87.4	81.4	59.4			120 (1.4) min	120 ± 26	2	18.9	34.7	67.3	74.4	79.8	88.6	100	100	100	8.3	8.3	
